Starred links: 1 amine or outer side, 2 acyl side, 3 side chain; linkers in the order of their positions; H or OH if unused. Non-standard residues stand in square brackets, D forms with d. Residues, ends and D or L forms follow the SMILES beside them. Groups on a side chain read outwards from the residue. *: point of attachment. C20 diacid = O=C(O)CCCCCCCCCCCCCCCCCCC(=O)*; γGlu = O=C(O)[C@H](CCC(=O)[*:2])N[*:1]; NMeI = CC[C@H](C)[C@H](NC)C(=O)O; Nle = CCCC[C@H](N)C(=O)O; AEEA = NCCOCCOCC(=O)O; Aib = CC(C)(N)C(=O)O
Assays:
[1] = Telemetry in mice (blood pressure, heart frequency); assay type: in vivo
Protocol: Blood pressure and heart frequency were monitored in freely moving conscious mice by radiotelemetry (PA-C10, Data Sciences). Briefly, analgesia with metamizole (100 mg / kg sc) was performed. For implantation of the telemetry transmitter, the animals were anesthetized with isoflurane with 5% induction and 2% maintenance. The neck was opened in the area of the hyoid bone up to the sternum in the median line. A subcutaneous pocket for the transmitter housing was prepared. The dextra carotid artery was then bluntly exposed and clamped. The […] was pushed caudally into the carotid artery through an incision. The catheter was fixed with a monofilament prolene thread, which also closed the incision. The vessel was also ligated cranially, and the clamp was then removed. The transmitter housing was pushed subcutaneously into a prepared skin pocket on the side opposite the catheter. Finally, the skin wound was closed. Postoperatively, an antibiotic (Ursocyclin® 10, Serumwerk Bernburg AG, Germany; 400 mg/l drinking water for 10 days) and an analgesic (Rimadyl®, 4 mg/kg sc for 3 days) were administered postoperatively.
For arterial blood pressure measurements, the animals were kept in a 12h: 12h day night cycle in a suitable room for at least one day before the first measurement. Animals were administrated s.c once daily in the morning for 7 consecutive days with either 1) Placebo, 2) SEQ ID NO: 3, 10 nmol/kg, 3) SEQ ID NO: 3, 30 nmol/kg or 4) SEQ ID NO: 3, 100 nmol/kg in a cross over design with 2 animals per group (n = 6-8) per week and with 1 week washout between treatments. The telemetric measurement took place over 24 hours.
For statistical analysis, 5 hours means were calculated starting from one hour after dosing and one hour after lights off. All data were evaluated using a 2-way ANOVA with Dunnett's test.

[2] = Acute effects on hemodynamics in anesthetized pigs; assay type: in vivo, Göttingen minipigs; conditions: anesthetized minipigs, ascending doses
Protocol: Göttingen minipigs were anesthetized and instrumented to continuous monitor hemodynamics during baseline measurement (0.5h), vehicle treatment (0.5h) and ascending doses of SEQ ID NO: 215 each 0.5 hours (10, 30, 100 and 300 µg/kg/min) and compared to a similar setup using Dobutamine (1, 3, 10 and 20 µg/kg/min) and vehicle (NaCl).

[3] = conscious healthy mice, s.c. once daily 7 days, 10-100 nmol/kg
[4] = mice, 10 nmol/kg, 1. dark period
[5] = mice, 10 nmol/kg, 2. dark period
[6] = mice, 10 nmol/kg, 3. dark period
[7] = mice, 10 nmol/kg, 4. dark period
[8] = mice, 10 nmol/kg, 5. dark period
[9] = mice, 10 nmol/kg, 6. dark period
[10] = mice, 10 nmol/kg, Baseline dark period
[11] = mice, 30 nmol/kg, 1. dark period
[12] = mice, 30 nmol/kg, 2. dark period
[13] = mice, 30 nmol/kg, 3. dark period
[14] = mice, 30 nmol/kg, 4. dark period
[15] = mice, 30 nmol/kg, 5. dark period
[16] = mice, 30 nmol/kg, 6. dark period
[17] = mice, 30 nmol/kg, Baseline dark period
[18] = mice, 100 nmol/kg, 1. dark period
[19] = mice, 100 nmol/kg, 2. dark period
[20] = mice, 100 nmol/kg, 3. dark period
[21] = mice, 100 nmol/kg, 4. dark period
[22] = mice, 100 nmol/kg, 5. dark period
[23] = mice, 100 nmol/kg, 6. dark period
[24] = mice, 100 nmol/kg, Baseline dark period

For CC[C@H](C)[C@H](N)C(=O)N[C@H](C(=O)N[C@@H](CC(C)C)C(=O)N[C@@H](CO)C(=O)N[C@@H](CC(C)C)C(=O)N[C@@H](CC(=O)O)C(=O)N[C@H](C(=O)N1CCC[C@H]1C(=O)N[C@H](C(=O)NCC(=O)N[C@@H](CC(C)C)C(=O)N[C@@H](CC(C)C)C(=O)N[C@@H](CCC(N)=O)C(=O)N[C@H](C(=O)N[C@@H](CC(C)C)C(=O)N[C@@H](CC(C)C)C(=O)N[C@@H](CCC(=O)O)C(=O)N[C@@H](CCC(N)=O)C(=O)N[C@@H](C)C(=O)N[C@@H](CCCNC(=N)N)C(=O)N[C@@H](C)C(=O)N[C@@H](CCCNC(=N)N)C(=O)N[C@@H](C)C(=O)N[C@@H](C)C(=O)N[C@@H](CCCNC(=N)N)C(=O)N[C@@H](CCC(=O)O)C(=O)N[C@@H](CCC(N)=O)C(=O)N[C@@H](C)C(=O)N[C@@H](CCCCNC(=O)COCCOCCNC(=O)COCCOCCNC(=O)CC[C@H](NC(=O)CC[C@H](NC(=O)CCCCCCCCCCCCCCCCCCC(=O)O)C(=O)O)C(=O)O)C(=O)N[C@H](C(=O)N[C@@H](CC(N)=O)C(=O)N[C@@H](C)C(=O)N[C@@H](CCC(=O)O)C(=O)N[C@H](C(=O)N[C@@H](CC(C)C)C(=O)N[C@@H](C)C(=O)N[C@@H](CCC(=O)O)C(=O)N[C@H](C(N)=O)C(C)C)[C@@H](C)CC)[C@@H](C)O)[C@@H](C)CC)[C@@H](C)CC)C(C)C)C(C)C [SEQ ID NO: 3] (H-IVLSLDVPIGLLQILLEQARARAAREQAK([AEEA-AEEA-γGlu-γGlu-C20 diacid])TNAEILAEV-NH2), the Heart rate [1, 3] was “permanent increase”, the “mean arterial blood pressure” value [1, 3] was “transient and dose-dependent effect” and the Heart rate [1, 4] was 617.82 ± 17.8 BPM. For the same molecule, the Mean arterial pressure [1, 4] was 102.19 ± 4.0 mmHg, the Heart rate ([1]; mice, 10 nmol/kg, 1. dose) was 590.34 ± 26.4 BPM and the Mean arterial pressure ([1]; mice, 10 nmol/kg, 1. dose) was 97.23 ± 3.7 mmHg. For the same molecule, the Heart rate [1, 5] was 576.21 ± 15.5 BPM, the Mean arterial pressure [1, 5] was 102.50 ± 2.9 mmHg and the Heart rate ([1]; mice, 10 nmol/kg, 2. dose) was 526.42 ± 18.4 BPM. The Mean arterial pressure ([1]; mice, 10 nmol/kg, 2. dose) was 89.86 ± 2.5 mmHg, the Heart rate [1, 6] was 570.38 ± 9.8 BPM and the Mean arterial pressure [1, 6] was 101.92 ± 1.5 mmHg. For the same molecule, the Heart rate ([1]; mice, 10 nmol/kg, 3. dose) was 517.24 ± 12.1 BPM, the Mean arterial pressure ([1]; mice, 10 nmol/kg, 3. dose) was 89.07 ± 1.9 mmHg and the Heart rate [1, 7] was 557.65 ± 11.8 BPM. It also gave a Mean arterial pressure [1, 7] of 103.17 ± 1.7 mmHg, a Heart rate ([1]; mice, 10 nmol/kg, 4. dose) of 521.88 ± 17.1 BPM and a Mean arterial pressure ([1]; mice, 10 nmol/kg, 4. dose) of 96.25 ± 1.4 mmHg. It also gave a Heart rate [1, 8] of 548.23 ± 8.3 BPM, a Mean arterial pressure [1, 8] of 105.59 ± 1.5 mmHg and a Heart rate ([1]; mice, 10 nmol/kg, 5. dose) of 515.46 ± 3.8 BPM. The Mean arterial pressure ([1]; mice, 10 nmol/kg, 5. dose) was 93.27 ± 1.8 mmHg, the Heart rate [1, 9] was 571.18 ± 17.4 BPM and the Mean arterial pressure [1, 9] was 104.54 ± 1.8 mmHg. For the same molecule, the Heart rate ([1]; mice, 10 nmol/kg, 6. dose) was 538.37 ± 13.6 BPM, the Mean arterial pressure ([1]; mice, 10 nmol/kg, 6. dose) was 99.01 ± 3.0 mmHg and the Heart rate [1, 10] was 573.24 ± 24.3 BPM. For the same molecule, the Mean arterial pressure [1, 10] was 117.13 ± 6.7 mmHg, the Heart rate [1, 11] was 636.57 ± 28.2 BPM and the Mean arterial pressure [1, 11] was 97.14 ± 2.8 mmHg. It also gave a Heart rate ([1]; mice, 30 nmol/kg, 1. dose) of 637.60 ± 39.0 BPM, a Mean arterial pressure ([1]; mice, 30 nmol/kg, 1. dose) of 83.81 ± 3.9 mmHg and a Heart rate [1, 12] of 579.68 ± 23.9 BPM. For the same molecule, the Mean arterial pressure [1, 12] was 102.00 ± 4.4 mmHg, the Heart rate ([1]; mice, 30 nmol/kg, 2. dose) was 534.13 ± 15.4 BPM and the Mean arterial pressure ([1]; mice, 30 nmol/kg, 2. dose) was 89.68 ± 5.3 mmHg. The Heart rate [1, 13] was 621.30 ± 9.5 BPM, the Mean arterial pressure [1, 13] was 106.02 ± 3.9 mmHg and the Heart rate ([1]; mice, 30 nmol/kg, 3. dose) was 524.21 ± 17.2 BPM. For the same molecule, the Mean arterial pressure ([1]; mice, 30 nmol/kg, 3. dose) was 93.98 ± 4.5 mmHg, the Heart rate [1, 14] was 650.03 ± 9.0 BPM and the Mean arterial pressure [1, 14] was 106.67 ± 4.8 mmHg. It also gave a Heart rate ([1]; mice, 30 nmol/kg, 4. dose) of 576.95 ± 21.0 BPM, a Mean arterial pressure ([1]; mice, 30 nmol/kg, 4. dose) of 94.91 ± 5.0 mmHg and a Heart rate [1, 15] of 628.77 ± 14.9 BPM. For the same molecule, the Mean arterial pressure [1, 15] was 107.74 ± 5.7 mmHg, the Heart rate ([1]; mice, 30 nmol/kg, 5. dose) was 552.59 ± 12.9 BPM and the Mean arterial pressure ([1]; mice, 30 nmol/kg, 5. dose) was 94.31 ± 5.2 mmHg. For the same molecule, the Heart rate [1, 16] was 625.92 ± 11.6 BPM, the Mean arterial pressure [1, 16] was 109.48 ± 6.3 mmHg and the Heart rate ([1]; mice, 30 nmol/kg, 6. dose) was 558.58 ± 15.1 BPM. The Mean arterial pressure ([1]; mice, 30 nmol/kg, 6. dose) was 97.05 ± 6.6 mmHg, the Heart rate [1, 17] was 573.65 ± 26.2 BPM and the Mean arterial pressure [1, 17] was 111.32 ± 3.0 mmHg. The Heart rate [1, 18] was 593.28 ± 23.1 BPM, the Mean arterial pressure [1, 18] was 86.82 ± 2.2 mmHg and the Heart rate ([1]; mice, 100 nmol/kg, 1. dose) was 692.31 ± 7.0 BPM. The Mean arterial pressure ([1]; mice, 100 nmol/kg, 1. dose) was 83.22 ± 5.6 mmHg, the Heart rate [1, 19] was 517.97 ± 16.2 BPM and the Mean arterial pressure [1, 19] was 98.30 ± 4.8 mmHg. For the same molecule, the Heart rate ([1]; mice, 100 nmol/kg, 2. dose) was 507.39 ± 8.1 BPM, the Mean arterial pressure ([1]; mice, 100 nmol/kg, 2. dose) was 89.63 ± 4.9 mmHg and the Heart rate [1, 20] was 591.77 ± 7.0 BPM. For the same molecule, the Mean arterial pressure [1, 20] was 101.88 ± 5.1 mmHg, the Heart rate ([1]; mice, 100 nmol/kg, 3. dose) was 536.49 ± 10.4 BPM and the Mean arterial pressure ([1]; mice, 100 nmol/kg, 3. dose) was 92.77 ± 4.1 mmHg. The Heart rate [1, 21] was 606.21 ± 10.1 BPM, the Mean arterial pressure [1, 21] was 103.60 ± 5.3 mmHg and the Heart rate ([1]; mice, 100 nmol/kg, 4. dose) was 560.41 ± 16.0 BPM. For the same molecule, the Mean arterial pressure ([1]; mice, 100 nmol/kg, 4. dose) was 94.17 ± 3.4 mmHg, the Heart rate [1, 22] was 619.17 ± 11.0 BPM and the Mean arterial pressure [1, 22] was 103.68 ± 4.4 mmHg. For the same molecule, the Heart rate ([1]; mice, 100 nmol/kg, 5. dose) was 554.35 ± 15.3 BPM, the Mean arterial pressure ([1]; mice, 100 nmol/kg, 5. dose) was 91.26 ± 2.0 mmHg and the Heart rate [1, 23] was 612.05 ± 11.8 BPM. It also gave a Mean arterial pressure [1, 23] of 103.45 ± 3.1 mmHg, a Heart rate ([1]; mice, 100 nmol/kg, 6. dose) of 550.11 ± 16.2 BPM and a Mean arterial pressure ([1]; mice, 100 nmol/kg, 6. dose) of 88.76 ± 1.3 mmHg. The Heart rate [1, 24] was 581.49 ± 7.7 BPM and the Mean arterial pressure [1, 24] was 108.55 ± 1.2 mmHg.
For CCCC[C@H](NC(=O)[C@@H](NC(=O)[C@H](CCC(=O)O)NC(=O)C(C)(C)NC(=O)[C@H](CC(N)=O)NC(=O)[C@@H](NC(=O)[C@H](CCCCNC(=O)COCCOCCNC(=O)COCCOCCNC(=O)CC[C@H](NC(=O)CC[C@H](NC(=O)CCCCCCCCCCCCCCCCCCC(=O)O)C(=O)O)C(=O)O)NC(=O)[C@H](C)NC(=O)[C@H](CCC(N)=O)NC(=O)[C@H](CCC(=O)O)NC(=O)[C@H](CCCNC(=N)N)NC(=O)[C@H](C)NC(=O)[C@H](C)NC(=O)[C@H](CCCNC(=N)N)NC(=O)[C@H](C)NC(=O)[C@H](CCCNC(=N)N)NC(=O)[C@H](C)NC(=O)[C@H](CCC(N)=O)NC(=O)[C@H](CO)NC(=O)[C@H](CC(C)C)NC(=O)[C@H](CC(C)C)NC(=O)[C@@H](NC(=O)[C@H](CCC(N)=O)NC(=O)[C@H](CC(C)C)NC(=O)[C@H](CC(C)C)NC(=O)CNC(=O)[C@@H](NC(=O)[C@@H]1CCCN1C(=O)[C@@H](NC(=O)[C@H](CC(=O)O)NC(=O)[C@H](CC(C)C)NC(=O)[C@H](CO)NC(=O)[C@H](CC(C)C)NC(=O)[C@@H](NC(=O)[C@@H](NC)[C@@H](C)CC)C(C)C)C(C)C)[C@@H](C)CC)[C@@H](C)CC)[C@@H](C)O)[C@@H](C)CC)C(=O)N[C@@H](C)C(=O)N[C@@H](CCC(=O)O)C(=O)N[C@H](C(N)=O)C(C)C [SEQ ID NO: 215] (H-[NMeI]VLSLDVPIGLLQILLSQARARAAREQAK([AEEA-AEEA-γGlu-γGlu-C20 diacid])TN[Aib]EI[Nle]AEV-NH2), the “inotropic effects (contractility)” value ([2]; Fig. 11A) was “positive inotropic effects”, the coronary blood flow ([2]; Fig. 11B) was “increasing” and the “O2 consumption (rate pressure product)” value ([2]; Figs. 11C and 11D) was “increasing”.

Reference: patent EP4810052A2, “HCRHR2 SELECTIVE POLYPEPTIDES” (Gubra A/S, priority 2023, dated 2026)
